# Data from US20230065158A1, “OXABICYCLOHEPTANES FOR TREATMENT OF SMALL CELL LUNG CANCER” (Lixte Biotechnology, Inc., priority 2021, published 2023).
# Columns and labels:
# [1] = tested on: H524 cells; assay: Seahorse XF Real-Time ATP rate assay, H524; type: cell-based; details: LB100 2.5 μM, carboplatin 4 μM
# Protocol: FIGS. 6A-6J depict ATP production rate in SCLC cells. FIG. 6A: H524 cells were treated with LB100 (2.5 μM), carboplatin (4 μM), or a combination, and ATP production rate was measured using the Agilent Seahorse XF Real Time ATP rate assay. mitoATP (mitochondrial) and glycoATP (glycolityc) rates were evaluated in H524 cells without and with drug treatments. […] FIG. 6B: Energetic map of H524 cells. After LB-100 and drug combination, cells became less glycolytic. FIGS. 6C-6E: The Agilent Seahorse XF pH sensor probe measures changes in the concentration of free protons, which corresponds to Extracellular Acidification Rate (ECAR). […] ATP level in cells was measured using the Agilent Seahorse XF Real Time ATP rate assay. […]
# To elucidate the effect of the drugs on the glycolytic metabolism of H524 cells, we analyzed the proton efflux rate (PER). PER is calculated by subtracting acidification produced from mitochondrial CO2 production (Mitochondrial-derived CO2 can partially hydrate in the extracellular medium, resulting in additional extracellular acidification beyond that contributed by glycolysis) from total acidification or protons efflux (from both glycolysis and mitochondrial) into the extra cellular medium. […] To confirm that LB100 also affected glycolytic pathway in LB100-resistant cells, we measured PER in these cells. […]
# [2] = tested on: H69 cells; assay: Seahorse XF Real-Time ATP rate assay, H69; type: cell-based; details: LB-100 10 μM, carboplatin 10 μM
# [3] = tested on: H69 cells mouse xenograft; assay: Subcutaneous H69 cells mouse xenograft; type: in vivo, Athymic nude mice; details: for tumor weight compared to vehicle-treated group: end of experiment
# Protocol: FIGS. 8A-8E depicts results of LB-100 activity alone and with carboplatin against H69 cells mouse xenograft. Tumor size (FIG. 8A) and body weights (FIG. 8B) were measured. Inhibition of tumor growth after LB-100 (*p<0.05), carboplatin (***p<0.001) and their combination (***p<0.001) were delivered via i.p. injections. P values show significant differences compared with vehicle group. FIG. 8C: Tumor images from vehicle and drug-treated groups. FIG. 8D: Tumor mass was measured at the end of experiment. […] FIG. 8E: Columns show total platinum (Pt) concentration in mouse tumors with carboplatin and LB-100/carboplatin treatments (n=3 as technical replicates) Pt mass was normalized to tumor total mass. Statistical analysis was performed using an ANOVA with Tukey post hoc-test (*p<0.05), carboplatin (**p<0.01).
# Animal studies were performed according to an IACUC protocol approved by City of Hope National Medical Center Animal Care and Use Committee. Athymic nude mice (5-6 weeks of age) were purchased from NCI (Frederick, Md.). Mice were injected subcutaneously on their right flank with H69 cells suspended (2×106) in 100 μl of PBS and 100 μl of matrigel (BD Biosciences, San Jose, Calif.). Tumor growth was measured in two dimensions with caliper and when surface tumor was visible (45-50 mm2) mice were randomized in four groups as follow: vehicle (PBS, i.p. 3 times a week), LB100 (0.25 mg/kg, i.p. 3 times a week), carboplatin (50 mg/kg, i.p. 2 times a week) and drug combination (LB100/carboplatin i.p.) for 30 days. At the end of the study, the mice were euthanized by CO2 asphyxiation followed by cervical dislocation. Tumor tissues were excised, weighed, and subsequently fixed in 10% buffered formalin and embedded in paraffin for histological analysis.
# [4] = tested on: H146 cells; details: human, 72 h
# Description: To determine specific cytotoxicity, we used Cell Counting Kit-8 (Dojindo Molecular Technologies, Rockville, Md.) as previously described (50).
# [5] = tested on: H524 cells; assay: Transendothelial extravasation assay through HUVEC monolayer, H524; type: cell-based; details: after 20 h of drug treatment
# Protocol: FIGS. 3A-3H depict SCLC cell invasion through HUVEC monolayer. FIGS. 3A-3D: Graphical representation of H524/H69 cell ability to disrupt a confluent HUVEC monolayer using an electrical substrate-impedance sensing system. Arrows indicate time point when cells were added. Inserts show mean values and SD for each group after 20 h of drug treatment. After treatment, cell viability was counted using an Auto T4 Cell Counter (Nexcelom Cellometer). […] Whole cell Pt accumulation. Graphical representation of LB-100 effect on platinum uptake by SCLC cells. Cells were pretreated with LB-100 (H524—5 μM; H69—20 μM) overnight, then treated with carboplatin for one or four hours (H524—10 μM; H69—30 μM). Whole cell pellet was used for platinum (Pt) measurement. Values are normalized to total protein concentration. FIGS. 3E and 3F: Panels show mean values and SD of Pt accumulation for each group. […] Effect of LB-100 on PP2A expression and apoptosis regulatory proteins in H524 and H69 cells. […]
# To discern the effect of LB100 on cell invasion, we tested the ability of SCLC cells to invade though a layer of endothelial cells (ECs). Toward this end, we measured the trans-endothelial monolayer resistance using an electrical substrate-impedance sensing system (Applied Biophysics, Troy, N.Y., USA), as previously described (24). […]
Compound,reduction of total ATP production rate compared to untreated cells [1] [%],drop of total ATP production rate [2] [%],tumor weight compared to vehicle-treated group [3],"tumor size ([3]; i.p., 30 days)",IC50 [4] [µM],% change of HUVEC barrier disruption (transmigration) [5]
"C[NH+]1CCN(C(=O)C2C(C(=O)O)[C@H]3CC[C@@H]2O3)CC1 (stereo in doubt) [LB-100, 3-[(4-Methylpiperazin-1-yl)carbonyl]-7-oxabicyclo[2.2.1]heptane-2-carboxylic acid]",73.7,54,significant reduction in tumor weight,statistically significant reduction in tumor size,> 20,16.9+2%
"N.N.O=C([O-])C1(C(=O)[O-])CCC1.[Pt+2] [Carboplatin, reference compound]",36.3,12,significant reduction in tumor weight,,,18.2 ± 0.4%
